Experimental data: patent publication US10537563B2, “Methods for treating ocular disease using inhibitors of CSF-1R” (NOVARTIS AG, priority 2016, dated 2020)

Columns and labels:
[1] = molecular target: Alk (Homo sapiens, UniProt Q9UM73); test: In vitro kinase assay (Table 1); assay type: biochemical
[2] = molecular target: CamKII alpha (Homo sapiens, UniProt Q9UQM7); test: In vitro kinase assay (Table 1); assay type: biochemical
[3] = molecular target: Chk1 (Homo sapiens, UniProt O14757); test: In vitro kinase assay (Table 1); assay type: biochemical
[4] = molecular target: Ck1 delta (Homo sapiens, UniProt P48730); test: In vitro kinase assay (Table 1); assay type: biochemical
[5] = molecular target: COT (Homo sapiens, UniProt P41279); test: In vitro kinase assay (Table 1); assay type: biochemical
[6] = molecular target: cRaf (Homo sapiens, UniProt P04049); test: In vitro kinase assay (Table 1); assay type: biochemical
[7] = molecular target: Dyrk3 (Homo sapiens, UniProt O43781); test: In vitro kinase assay (Table 1); assay type: biochemical
[8] = molecular target: Insulin RK (Homo sapiens, UniProt P06213); test: In vitro kinase assay (Table 1); assay type: biochemical
[9] = molecular target: Jak2 (Homo sapiens, UniProt O60674); test: In vitro kinase assay (Table 1); assay type: biochemical
[10] = molecular target: Lck (Homo sapiens, UniProt P06239); test: In vitro kinase assay (Table 1); assay type: biochemical
[11] = molecular target: PAK2 (Homo sapiens, UniProt Q13177); test: In vitro kinase assay (Table 1); assay type: biochemical
[12] = molecular target: PAK4 (Homo sapiens, UniProt O96013); test: In vitro kinase assay (Table 1); assay type: biochemical
[13] = molecular target: PDK_1 (Homo sapiens, UniProt O15530); test: In vitro kinase assay (Table 1); assay type: biochemical
[14] = molecular target: PIK3Calpha (Homo sapiens, UniProt P42336); test: In vitro kinase assay (Table 1); assay type: biochemical
[15] = molecular target: p38alpha (Homo sapiens, UniProt Q16539); test: In vitro kinase assay (Table 1); assay type: biochemical
[16] = molecular target: smMLCK (Homo sapiens, UniProt Q15746); test: In vitro kinase assay (Table 1); assay type: biochemical
[17] = molecular target: TRKC (Homo sapiens, UniProt Q16288); test: In vitro kinase assay (Table 1); assay type: biochemical
[18] = molecular target: T1, CSF_1_RK (h) (Homo sapiens, UniProt P07333); test: Kinase profiling at Invitrogen; assay type: biochemical
T1 construct: purchased Invitrogen

[19] = molecular target: T2, PDGFRKalpha (h) (Homo sapiens, UniProt P16234); test: Kinase profiling at Invitrogen; assay type: biochemical
T2 construct: purchased Invitrogen

[20] = molecular target: T3, Met (h) (Homo sapiens, UniProt P08581); test: Kinase profiling at Invitrogen; assay type: biochemical
T3 construct: purchased Invitrogen

[21] = molecular target: T4, BaF-Tel-IGF1R (Homo sapiens, UniProt P08069); test: BaF3 proliferation assay; assay type: cell-based, murine
T4 construct: fused on or other part: P41212 (Transcription factor ETV6)

[22] = molecular target: T5, BaF3-Tel-INSR 1.2 (Homo sapiens, UniProt P06213); test: BaF3 proliferation assay; assay type: cell-based, murine
T5 construct: fused on or other part: P41212 (Transcription factor ETV6)

[23] = molecular target: T6, BaF3-Tel-JAK2; clone1 (Homo sapiens, UniProt O60674); test: BaF3 proliferation assay; assay type: cell-based, murine
T6 construct: fused on or other part: P41212 (Transcription factor ETV6)

[24] = molecular target: T7, BAF/Tel-Tie1-Q2/sACP (Homo sapiens, UniProt P35590); test: BaF3 proliferation assay; assay type: cell-based, murine
T7 construct: fused on or other part: P41212 (Transcription factor ETV6)

[25] = molecular target: T8, BAF/Tel-TIE2-1.2/sACP (Homo sapiens, UniProt Q02763); test: BaF3 proliferation assay; assay type: cell-based, murine
T8 construct: fused on or other part: P41212 (Transcription factor ETV6)

[26] = molecular target: T9, BAF/Tel-FLT1-Q1/sACP (Homo sapiens, UniProt P17948); test: BaF3 proliferation assay; assay type: cell-based, murine
T9 construct: fused on or other part: P41212 (Transcription factor ETV6)

[27] = molecular target: T10, BAF/Tel-FGFR3-Q2/sACP (Homo sapiens, UniProt P22607); test: BaF3 proliferation assay; assay type: cell-based, murine
T10 construct: fused on or other part: P41212 (Transcription factor ETV6)

[28] = molecular target: T11, BAF/Tel-FGFR2-Q1/sACP (Homo sapiens, UniProt P21802); test: BaF3 proliferation assay; assay type: cell-based, murine
T11 construct: fused on or other part: P41212 (Transcription factor ETV6)

[29] = molecular target: T12, BAF/Tel-RON-4.1/sACP (Homo sapiens, UniProt Q04912); test: BaF3 proliferation assay; assay type: cell-based, murine
T12 construct: fused on or other part: P41212 (Transcription factor ETV6)

[30] = molecular target: T13, BAF/Tel-Ros-1.1/sACP (Homo sapiens, UniProt P08922); test: BaF3 proliferation assay; assay type: cell-based, murine
T13 construct: fused on or other part: P41212 (Transcription factor ETV6)

[31] = molecular target: T14, BAF/Tel-Syk-1.1/sACP (Homo sapiens, UniProt P43405); test: BaF3 proliferation assay; assay type: cell-based, murine
T14 construct: fused on or other part: P41212 (Transcription factor ETV6)

[32] = tested on: MCSF-dependent proliferation; test: MCSF-dependent proliferation; assay type: cell-based; conditions: read-out: MCSF-dependent proliferation cellular EC50
[33] = tested on: human macrophages; test: In vitro survival of human macrophages (CellTiter-Glo); assay type: cell-based; conditions: 1 and 10 μM
Experimental: (§1) Freshly isolated human PBMCs were used to purify human monocytes by negative selection using an indirect magnetic labeling system. […] Soluble factors such as cytokines (VEGFa, IL-6 etc.) and chemokines (IL-8, MCP-1, MMP9 etc.) in the culture supernatant were measured using commercial ELISA kits. The in vitro survival of human macrophages was measured using a commercially available CellTiter-Glo® system. Most observed results were repeated in multiple donors (n>5).

[34] = tested on: human monocytes; test: Human monocyte survival in culture; assay type: cell-based; conditions: concentration dependent effect
Experimental: as §1

[35] = tested on: CSF-1 receptor; test: CSF-1 receptor expression on human monocytes; assay type: cell-based; conditions: day 1 to day 3
Experimental: as §1

[36] = tested on: MMP-9; test: MMP-9 production by human monocytes (ELISA); assay type: cell-based; conditions: Monocyte
Experimental: as §1

T1 sequence (P07333 20-972): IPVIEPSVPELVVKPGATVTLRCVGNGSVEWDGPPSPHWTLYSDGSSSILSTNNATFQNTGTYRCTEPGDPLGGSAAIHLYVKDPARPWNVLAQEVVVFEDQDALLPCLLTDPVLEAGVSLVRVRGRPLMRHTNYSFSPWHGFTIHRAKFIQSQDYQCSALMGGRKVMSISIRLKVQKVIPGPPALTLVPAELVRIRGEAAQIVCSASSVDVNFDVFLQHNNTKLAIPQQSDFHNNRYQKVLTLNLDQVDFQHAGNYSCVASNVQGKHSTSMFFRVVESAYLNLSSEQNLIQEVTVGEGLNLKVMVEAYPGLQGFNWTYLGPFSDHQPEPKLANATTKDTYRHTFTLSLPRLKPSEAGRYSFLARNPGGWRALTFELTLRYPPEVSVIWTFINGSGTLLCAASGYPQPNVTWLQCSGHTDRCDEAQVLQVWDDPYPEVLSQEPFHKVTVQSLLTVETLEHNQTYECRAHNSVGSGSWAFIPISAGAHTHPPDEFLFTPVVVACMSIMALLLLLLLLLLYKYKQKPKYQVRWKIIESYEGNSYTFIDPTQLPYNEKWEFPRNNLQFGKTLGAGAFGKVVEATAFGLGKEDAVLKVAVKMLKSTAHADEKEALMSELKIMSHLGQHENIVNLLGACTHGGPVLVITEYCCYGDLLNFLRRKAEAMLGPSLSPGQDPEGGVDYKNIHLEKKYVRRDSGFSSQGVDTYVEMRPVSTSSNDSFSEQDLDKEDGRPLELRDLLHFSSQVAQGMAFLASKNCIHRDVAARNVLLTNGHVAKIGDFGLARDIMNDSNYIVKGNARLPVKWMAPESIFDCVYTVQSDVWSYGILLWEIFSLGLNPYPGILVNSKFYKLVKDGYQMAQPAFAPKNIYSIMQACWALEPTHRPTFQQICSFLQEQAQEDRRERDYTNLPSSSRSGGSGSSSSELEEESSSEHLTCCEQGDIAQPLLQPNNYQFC
T2 sequence (P16234 24-1089): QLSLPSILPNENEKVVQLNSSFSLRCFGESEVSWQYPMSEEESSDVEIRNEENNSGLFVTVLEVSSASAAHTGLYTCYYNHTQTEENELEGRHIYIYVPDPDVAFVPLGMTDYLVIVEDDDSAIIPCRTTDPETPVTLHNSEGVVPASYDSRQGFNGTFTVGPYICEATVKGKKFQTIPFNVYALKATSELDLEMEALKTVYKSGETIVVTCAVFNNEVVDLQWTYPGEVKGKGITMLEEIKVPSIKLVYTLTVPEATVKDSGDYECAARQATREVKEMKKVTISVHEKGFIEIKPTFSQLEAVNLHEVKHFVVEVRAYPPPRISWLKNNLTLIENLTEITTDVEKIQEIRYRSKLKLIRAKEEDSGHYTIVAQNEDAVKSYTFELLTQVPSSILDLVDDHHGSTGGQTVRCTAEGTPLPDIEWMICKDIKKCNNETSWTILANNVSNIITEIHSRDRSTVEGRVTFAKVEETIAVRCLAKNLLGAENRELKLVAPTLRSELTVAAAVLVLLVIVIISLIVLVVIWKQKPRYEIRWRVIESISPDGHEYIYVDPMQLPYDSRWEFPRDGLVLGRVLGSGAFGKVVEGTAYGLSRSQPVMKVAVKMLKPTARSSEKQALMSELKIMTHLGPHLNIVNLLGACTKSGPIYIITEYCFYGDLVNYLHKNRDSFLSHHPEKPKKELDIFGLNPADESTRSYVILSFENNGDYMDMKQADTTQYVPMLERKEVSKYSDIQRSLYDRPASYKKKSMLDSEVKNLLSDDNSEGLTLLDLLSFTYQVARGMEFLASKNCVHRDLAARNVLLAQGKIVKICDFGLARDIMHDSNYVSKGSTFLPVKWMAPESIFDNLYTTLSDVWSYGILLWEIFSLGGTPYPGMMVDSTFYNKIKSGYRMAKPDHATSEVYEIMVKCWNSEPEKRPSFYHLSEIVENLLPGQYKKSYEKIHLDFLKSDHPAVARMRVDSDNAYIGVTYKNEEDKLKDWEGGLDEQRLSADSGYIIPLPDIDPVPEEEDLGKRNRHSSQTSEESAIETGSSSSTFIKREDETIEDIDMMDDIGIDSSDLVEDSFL
T3 sequence (P08581 25-1390): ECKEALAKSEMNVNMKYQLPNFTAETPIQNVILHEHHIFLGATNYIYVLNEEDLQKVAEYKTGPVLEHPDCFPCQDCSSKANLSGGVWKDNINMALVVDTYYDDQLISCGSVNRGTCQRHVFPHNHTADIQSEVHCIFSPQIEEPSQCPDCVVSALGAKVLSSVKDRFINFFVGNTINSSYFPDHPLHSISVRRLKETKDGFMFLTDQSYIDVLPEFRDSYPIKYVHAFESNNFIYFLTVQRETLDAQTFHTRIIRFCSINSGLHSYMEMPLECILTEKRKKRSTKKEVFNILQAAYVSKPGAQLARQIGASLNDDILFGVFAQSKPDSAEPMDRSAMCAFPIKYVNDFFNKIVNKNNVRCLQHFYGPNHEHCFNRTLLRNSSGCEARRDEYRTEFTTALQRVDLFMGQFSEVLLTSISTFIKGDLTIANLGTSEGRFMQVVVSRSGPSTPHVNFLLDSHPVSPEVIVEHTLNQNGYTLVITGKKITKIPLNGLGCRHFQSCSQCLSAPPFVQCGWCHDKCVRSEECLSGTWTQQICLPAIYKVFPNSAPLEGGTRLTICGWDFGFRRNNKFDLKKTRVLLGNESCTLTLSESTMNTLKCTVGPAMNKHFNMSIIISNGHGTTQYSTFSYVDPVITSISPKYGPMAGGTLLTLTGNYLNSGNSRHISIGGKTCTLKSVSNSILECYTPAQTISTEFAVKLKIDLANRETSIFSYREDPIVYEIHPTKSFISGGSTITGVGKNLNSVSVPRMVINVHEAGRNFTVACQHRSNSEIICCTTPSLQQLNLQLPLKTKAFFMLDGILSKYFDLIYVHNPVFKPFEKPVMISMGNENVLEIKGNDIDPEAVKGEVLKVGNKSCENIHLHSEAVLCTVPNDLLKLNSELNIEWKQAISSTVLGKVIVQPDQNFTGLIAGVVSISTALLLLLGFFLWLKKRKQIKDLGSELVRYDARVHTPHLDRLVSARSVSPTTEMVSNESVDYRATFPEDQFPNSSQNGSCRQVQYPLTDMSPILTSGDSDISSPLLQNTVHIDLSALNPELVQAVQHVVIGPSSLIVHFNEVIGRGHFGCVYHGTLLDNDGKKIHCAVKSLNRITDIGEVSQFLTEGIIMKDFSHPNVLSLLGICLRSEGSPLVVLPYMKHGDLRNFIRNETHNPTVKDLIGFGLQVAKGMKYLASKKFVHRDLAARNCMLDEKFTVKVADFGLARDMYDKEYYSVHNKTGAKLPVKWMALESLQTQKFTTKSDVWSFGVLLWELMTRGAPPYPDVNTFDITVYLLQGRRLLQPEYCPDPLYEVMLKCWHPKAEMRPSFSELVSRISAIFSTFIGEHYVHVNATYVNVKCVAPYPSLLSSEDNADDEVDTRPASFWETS
Chain of PAK2 (Q13177 whole entry, species assumed): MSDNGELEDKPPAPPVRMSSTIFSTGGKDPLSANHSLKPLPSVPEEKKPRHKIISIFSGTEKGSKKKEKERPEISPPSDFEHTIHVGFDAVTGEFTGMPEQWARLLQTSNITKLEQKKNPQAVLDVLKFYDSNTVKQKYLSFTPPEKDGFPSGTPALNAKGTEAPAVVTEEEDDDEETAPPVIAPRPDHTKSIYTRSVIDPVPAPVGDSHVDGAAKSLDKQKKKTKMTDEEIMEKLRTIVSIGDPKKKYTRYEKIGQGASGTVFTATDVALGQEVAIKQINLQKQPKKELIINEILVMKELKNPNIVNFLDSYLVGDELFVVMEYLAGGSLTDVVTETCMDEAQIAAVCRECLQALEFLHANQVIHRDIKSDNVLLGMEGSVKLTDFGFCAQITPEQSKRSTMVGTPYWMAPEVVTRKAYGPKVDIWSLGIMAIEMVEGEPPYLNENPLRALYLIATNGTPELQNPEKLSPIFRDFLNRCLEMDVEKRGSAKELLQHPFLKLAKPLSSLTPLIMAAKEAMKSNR
Chain of Chk1 (O14757 whole entry, species assumed): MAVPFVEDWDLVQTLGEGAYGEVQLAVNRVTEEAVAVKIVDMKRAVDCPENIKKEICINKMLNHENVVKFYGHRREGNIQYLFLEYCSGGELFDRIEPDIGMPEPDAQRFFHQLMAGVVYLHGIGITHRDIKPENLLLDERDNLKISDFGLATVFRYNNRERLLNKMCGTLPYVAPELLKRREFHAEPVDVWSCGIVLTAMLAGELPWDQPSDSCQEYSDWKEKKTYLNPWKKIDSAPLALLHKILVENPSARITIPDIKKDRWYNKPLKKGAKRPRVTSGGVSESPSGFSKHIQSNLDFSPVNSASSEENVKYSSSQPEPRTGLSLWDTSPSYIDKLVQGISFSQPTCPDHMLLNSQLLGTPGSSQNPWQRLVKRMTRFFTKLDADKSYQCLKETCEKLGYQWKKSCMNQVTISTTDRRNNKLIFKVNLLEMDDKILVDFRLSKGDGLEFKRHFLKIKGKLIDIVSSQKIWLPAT
Chain of Dyrk3 (O43781 whole entry, species assumed): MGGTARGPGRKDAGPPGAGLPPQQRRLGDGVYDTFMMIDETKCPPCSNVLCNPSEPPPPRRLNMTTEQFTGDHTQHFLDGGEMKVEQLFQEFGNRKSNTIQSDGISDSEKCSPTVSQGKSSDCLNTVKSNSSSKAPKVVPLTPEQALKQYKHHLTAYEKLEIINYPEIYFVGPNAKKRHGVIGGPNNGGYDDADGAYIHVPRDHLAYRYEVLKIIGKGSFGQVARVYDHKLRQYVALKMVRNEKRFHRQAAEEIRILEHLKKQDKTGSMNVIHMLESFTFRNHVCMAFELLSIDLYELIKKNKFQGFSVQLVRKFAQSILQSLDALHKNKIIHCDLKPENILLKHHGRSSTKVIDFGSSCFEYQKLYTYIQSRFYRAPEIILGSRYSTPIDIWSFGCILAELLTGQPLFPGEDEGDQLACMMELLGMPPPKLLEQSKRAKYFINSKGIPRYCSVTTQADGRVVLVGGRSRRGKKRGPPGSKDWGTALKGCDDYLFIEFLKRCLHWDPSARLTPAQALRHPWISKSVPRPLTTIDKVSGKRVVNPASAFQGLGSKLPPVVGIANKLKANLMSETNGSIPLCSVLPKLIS

Which results are given for CNC(=O)c1cc(Oc2ccc3nc(NC4CCCCC4O)sc3c2)ccn1 (stereo not drawn) [Compound (I)]?
IC50 [1]: > 10 µM; IC50 [2]: > 10 µM; IC50 [3]: > 10 µM; IC50 [4]: > 10 µM; IC50 [5]: > 25 µM; IC50 [6]: > 10 µM; IC50 [7]: > 10 µM; IC50 [8]: > 10 µM; IC50 [9]: > 25 µM; IC50 [10]: > 10 µM; IC50 [11]: > 25 µM; IC50 [12]: > 10 µM; IC50 [13]: > 25 µM; IC50 [14]: > 25 µM; IC50 [15]: > 25 µM; IC50 [16]: > 10 µM; IC50 [17]: > 10 µM; inhibition at 0.5 µM ([18]; read-out: % inhibition @ 0.5 μM, CSF_1_RK (h)): 97%; inhibition at 5 µM ([18]; read-out: % inhibition @ 5 μM, CSF_1_RK (h)): 99%; inhibition at 20 µM ([18]; read-out: % inhibition @ 20 μM, CSF_1_RK (h)): 95%; inhibition at 0.5 µM ([19]; read-out: % inhibition @ 0.5 μM, PDGFRKalpha (h)): 28%; inhibition at 5 µM ([19]; read-out: % inhibition @ 5 μM, PDGFRKalpha (h)): 41%; inhibition at 20 µM ([19]; read-out: % inhibition @ 20 μM, PDGFRKalpha (h)): 55%; inhibition at 0.5 µM ([20]; read-out: % inhibition @ 0.5 μM, Met (h)): 0%; inhibition at 5 µM ([20]; read-out: % inhibition @ 5 μM, Met (h)): 4%; inhibition at 20 µM ([20]; read-out: % inhibition @ 20 μM, Met (h)): 37%; EC50 [21]: > 10 µM; EC50 [22]: > 10 µM; EC50 [23]: > 10 µM; EC50 [24]: > 10 µM; EC50 [25]: > 10 µM; EC50 [26]: > 10 µM; EC50 [27]: > 10 µM; EC50 [28]: > 10 µM; EC50 [29]: > 10 µM; EC50 [30]: > 10 µM; EC50 [31]: > 10 µM; EC50 [32]: < 71 nM; viability of human macrophages (CTG values and light microscope pictures) [33]: decreased the viability; concentration at which monocyte survival was significantly affected [34]: ≥ 0.6 µM; CSF-1 receptor expression on human monocytes [35]: increased; inhibition at 0.05 µM [36]: 30 to 50%
